These results are taken from patent US20060270655A1, “Combination therapy for treating obesity or maintaining weight loss” (priority 2005, published 2006).

SMILES strings stand for the structures.

A short description of this test: Food intake (12 hour spontaneous food intake, rats on high fat diet). The test is classed as in vivo. As to conditions: male Sprague-Dawley rats. Here is the method: The following functional assay was used to determine the effect of an intestinal-acting MTPi, a CB-1 antagonist, and the combination of an intestinal-acting MTPi and a CB-1 antagonist on food intake. The doses of the CB-1 antagonist used in the experiments were 10 mg/kg and 30 mg/kg. The doses of the intestinal-acting MTPi used in the experiments were 3 mg/kg and 10 mg/kg. The different dosages for each active were tested alone and in various combinations with each other as compared to a control (vehicle).
Male Sprague-Dawley rats (275-325 grams) were placed on a high fat diet (Research Diets, 45% kcal from fat). Animals were acclimated to an automated food intake assessment system overnight. Food weight data was collected by computer acquisition. Immediately prior to the start of the dark cycle on the first day, animals were given a PO (i.e., orally by mouth) dose of a gMTP inhibitor (Dirlotapide) or vehicle (self-emulsifying drug delivery system (SEDDS) formulation containing 20% Miglyol 812, 30% Triacetin, 20% Tween 80, and 30% Capmul MCM). On the second day, rats (n=5-10/group) were given a PO dose of a CB-1 antagonist (Compound A) or 0.5% methylcellulose 20 minutes prior to a second dose of Dirlotapide or vehicle. Food Intake was monitored until the following day. Data for each treatment group was compared by ANOVA (analysis of variance).

As for `CCNC1(C(N)=O)CCN(c2ncnc3c2nc(-c2ccccc2Cl)n3-c2ccc(Cl)cc2)CC1` [Compound A, 1-[9-(4-chloro-phenyl)-8-(2-chloro-phenyl)-9H-purin-6-yl]4-ethylamino-piperidine-4-carboxylic acid amide], the “12 hour Spontaneous Food Intake” value came out at 16.3 ± 1.0 grams (10 mg/kg Compound A PO alone (plus SEDDS vehicle)) and 12.6 ± 1.4 grams (30 mg/kg Compound A PO alone (plus SEDDS vehicle)).
With `CN(Cc1ccccc1)C(=O)[C@@H](NC(=O)c1cc2cc(NC(=O)c3ccccc3-c3ccc(C(F)(F)F)cc3)ccc2n1C)c1ccccc1` [Dirlotapide, (S)-N-{2-[benzyl(methyl)amino]-2-oxo-1-phenylethyl}-1-methyl-5-[4′-(trifluoromethyl)[1,1′-biphenyl]-2-carboxamido]-1H-indole-2 carboxamide], the “12 hour Spontaneous Food Intake” value was 14.6 ± 0.8 grams (3 mg/kg Dirlotapide PO alone (two daily doses, plus 0.5% methylcellulose)) and 11.3 ± 0.7 grams (10 mg/kg Dirlotapide PO alone (two daily doses, plus 0.5% methylcellulose)).
